Columns and labels:
[1] = tested on: D2-HP (DNA, hairpin) CGCGAAGCATTCGCG; assay: ITC; settings: K+ (20 mM potassium phosphate, 100 mM KCl; 120 mM K+); pH 7.0, 5% DMSO, 40 °C
[2] = tested on: Q3-sbl (DNA, G4) TTAGGGTGGTAGGGTGGGGAAGG; assay: ITC; settings: K+ (20 mM potassium phosphate, 100 mM KCl; 120 mM K+), pH 7.0, 5% DMSO, 40 °C
[3] = tested on: QD3-sbl (DNA, G4) TTAGGTGGGTAGGGTGGGCTAGTCATTTTGACTAGG; assay: ITC; settings: K+ (20 mM potassium phosphate, 100 mM KCl; 120 mM K+), pH 7.0, 5% DMSO, 40 °C
[4] = tested on: QD2-l (DNA, G4) GGTTGGCGCGAAGCATTCGCGGGTTGG; assay: CD melting at 295 nm; settings: K+ (10 mM potassium phosphate), pH 7.0, 5 µM DNA, 1:1 ligand (5 µM), free Tm 50.3 °C
[5] = tested on: QD2-l-2bp (DNA, G4) GGTTGGCGGCACGGGTTGG; assay: ITC; settings: K+ (20 mM potassium phosphate, 100 mM KCl; 120 mM K+); pH 7.0, 5% DMSO, 40 °C; site 1 of 2
[6] = tested on: D3-HP (DNA, hairpin) CTAGTCATTTTGACTAG; assay: ITC; settings: K+ (20 mM potassium phosphate, 100 mM KCl; 120 mM K+), pH 7.0, 5% DMSO, 40 °C
[7] = tested on: QD2-l (DNA, G4) GGTTGGCGCGAAGCATTCGCGGGTTGG; assay: ITC; settings: K+ (20 mM potassium phosphate, 100 mM KCl; 120 mM K+), pH 7.0, 5% DMSO, 40 °C, site 1 of 2
[8] = tested on: TBA (DNA, G4) GGTTGGTGTGGTTGG; assay: ITC; settings: K+ (20 mM potassium phosphate, 100 mM KCl; 120 mM K+); pH 7.0, 5% DMSO, 40 °C
[9] = tested on: QD3-sbl (DNA, G4) TTAGGTGGGTAGGGTGGGCTAGTCATTTTGACTAGG; assay: NMR titration and solution structure; settings: K+ (10 mM potassium phosphate for structure; 120 mM K+ for titration); pH 7.0, 30 °C titration; intercalation at quadruplex-duplex junction, slow exchange
[10] = tested on: Q3-sbl2 (DNA, G4) TTAGGTGGGTAGGGTGGGTGTG; assay: NMR titration; settings: K+ (10 mM potassium phosphate); pH 7.0, 30 °C, 0.75 mM DNA; stacks on 5'-tetrad

CCN(CC)CCCNC(=O)c1ccc(-c2c3cccc(C)c3[n+](C)c3c2[nH]c2c(C)cccc23)cc1 gave a Ka [1] of 45000 ± 14000 M⁻¹, a Ka ([2]; site 1 of 2) of 3.2e+06 ± 1.4e+06 M⁻¹ and a Ka ([3]; site 1 of 2) of 1.3e+07 ± 2.9e+06 M⁻¹. The Tm increase [4] was ~ 13 °C, the Ka [5] was 7.1e+06 ± 77000 M⁻¹ and the Ka [6] was 16000 ± 2200 M⁻¹. The Ka ([7]; Table S13 prints error 1.4×10^6) was 8.3e+06 ± 120000 M⁻¹ and the Ka [8] was 26000 ± 8600 M⁻¹.
Work on CCOCCCNC(=O)c1ccc(-c2c3cccc(C)c3[n+](C)c3c2[nH]c2c(C)cccc23)cc1 yielded a Ka [7] of 2.6e+06 ± 700000 M⁻¹.
For CN(C)CCCNc1c2ccccc2nc2c1[nH]c1ccccc12, the Ka ([2]; site 1 of 2) was 2.1e+06 ± 610000 M⁻¹, the Ka ([3]; site 1 of 2) was 1.1e+07 ± 3.3e+06 M⁻¹ and the Tm increase [4] was ~ 5 °C. It also gave a Ka ([6]; site 1 of 2) of 1.3e+06 ± 120000 M⁻¹.
CN(C)CCN1C(=O)c2ccc3c4c(ccc(c24)C1=O)C(=O)N(CCN(C)C)C3=O was tested, and the Ka [2] was 95000 ± 11000 M⁻¹, the Ka ([3]; authors: competing sites may not be separated) was 120000 ± 25000 M⁻¹ and the Ka [6] was 72000 ± 23000 M⁻¹.
In the case of CN(C)c1ccc(Nc2c3ccc(NC(=O)CCN4CCCC4)cc3nc3cc(NC(=O)CCN4CCCC4)ccc23)cc1, the Ka ([2]; site 1 of 2) is reported as 3e+07 ± 2.3e+06 M⁻¹, the Ka ([3]; site 1 of 2, authors: competing sites may not be separated) is reported as 1.4e+07 ± 6.1e+06 M⁻¹ and the Ka ([6]; site 1 of 2) is reported as 2.9e+06 ± 690000 M⁻¹.
With CN1C(=Cc2cc[n+](C)c3ccccc23)Sc2ccccc21 the Ka [2] was 170000 ± 67000 M⁻¹, the Ka ([3]; site 1 of 2) was 1.1e+06 ± 27000 M⁻¹ and the Ka [6] was 41000 ± 2700 M⁻¹.
With C[n+]1cc(NC(=O)c2ccc3ccc4ccc(C(=O)Nc5cc6ccccc6[n+](C)c5)nc4c3n2)cc2ccccc21 the binding [9] was “yes”, the Tm increase ([4]; complex 74 °C) was ~ 24 °C and the binding [10] was “yes”.
Cc1cccc2c1[nH]c1c(-c3ccc(C(=O)NCCCN(C)CCCN)cc3)c3cccc(C)c3[n+](C)c12 showed a Ka [7] of 7.9e+06 ± 900000 M⁻¹.

— publication PMC9723630 (2022)
